The results in this text go back to US20240115705A1, “Regulation of Butyrophilin subfamily 3 member A1 (BTN3A1, CD277)” (The J. Gladstone Institutes, a testamentary trust …, priority 2021, published 2024).

For the data set, the system named is Daudi-Cas9 cells. Description: Cancer-T cell co-culture genome-wide CRISPR knockout screen (Vγ9Vδ2 T cell killing). Format: cell-based, human. Particulars: for score: MAGeCK sgRNA test, co-culture screen; for LFC: log-fold change of sgRNA, surviving cells after co-culture vs baseline; for LFC / treat mean: MAGeCK; for treat mean: sgRNA abundance in surviving Daudi-Cas9 KO cells after 24 hours Vγ9Vδ2 T cell co-culture with zoledronate; for high_in_treatment: sgRNA enriched (TRUE) or depleted (FALSE) after T cell co-culture.

With “SPI1_CACGTCCTCGATACCCCCA: library sgRNA targeting SPI1 (as printed in the source, key not given here)”, the score was 9.6891, the LFC was 1.4776, the treat mean is given as 5441.8 and the high_in_treatment entry is “TRUE”.

“SPIB_CCTCGTGGCTGGCCCCGAG: library sgRNA targeting SPIB (as printed in the source, key not given here)”: the score is on record as 7.9175, the LFC came out at 1.2165, the treat mean is reported as 5523.4 and the high_in_treatment entry is on record as “TRUE”.

“SPIB_CGGGTCGAAGGCTTCATAG: library sgRNA targeting SPIB (as printed in the source, key not given here)”: the score is given as 6.9394, the LFC was 1.7479, the treat mean turned out to be 1900.6 and the high_in_treatment entry was “TRUE”.

For “SPIB_CTGGGGCTACTGACGCGCG: library sgRNA targeting SPIB (as printed in the source, key not given here)”, the score was found to be 12.692, the LFC is given as 1.6241, the treat mean was determined as 7610.7 and the high_in_treatment entry is “TRUE”.

Take “SPIB_GAGGTCTCGGACAGCGAGT: library sgRNA targeting SPIB (as printed in the source, key not given here)”: the score turned out to be 7.1579, the LFC is 1.2994, the treat mean was found to be 3907.1 and the high_in_treatment entry was “TRUE”.

Consider “SPIB_GCTAGCGAAGTTCTCCGTG: library sgRNA targeting SPIB (as printed in the source, key not given here)”, for which the score was found to be 8.8597, the LFC is given as 1.4916, the treat mean was 4447.4 and the high_in_treatment result is “TRUE”.

For “SPIB_GGGGGGTTCGTAGCAGAGC: library sgRNA targeting SPIB (as printed in the source, key not given here)”, the score came out at 6.2733, the LFC is listed as 1.2452, the treat mean turned out to be 3280.6 and the high_in_treatment result is listed as “TRUE”.

As to “SPIB_GGGTACGGGGCATATGCCG: library sgRNA targeting SPIB (as printed in the source, key not given here)”, the score is on record as 10.693, the LFC came out at 1.7824, the treat mean amounted to 4360 and the high_in_treatment result is “TRUE”.

Regarding “SUGT1_TTTGACTGATGAGTCCACT: library sgRNA targeting SUGT1 (listed as DNA, chemistry not fully specified)”, the score amounted to 7.7611, the LFC was found to be 1.5136, the treat mean amounted to 3294.2 and the high_in_treatment result is “TRUE”.

In the case of “TRMT61A_CACGTCACCTTGGAGCCGA: library sgRNA targeting TRMT61A (listed as DNA, chemistry not fully specified)”, the score is given as 6.3388, the LFC was −3.6911, the treat mean is reported as 242.28 and the high_in_treatment entry is “FALSE”.

In the case of “TSC2_AGCATCTCATACACACGCG: library sgRNA targeting TSC2 (listed as DNA, chemistry not fully specified)”, the score is 6.0284, the LFC is on record as −2.8218, the treat mean is 463.96 and the high_in_treatment result is on record as “FALSE”.

As to “TTC7A_CAGTACGTCATGCTCTCGG: library sgRNA targeting TTC7A (listed as DNA, chemistry not fully specified)”, the score worked out at 6.0307, the LFC was −5.2629, the treat mean amounted to 63.697 and the high_in_treatment result is given as “FALSE”.
